# Test results taken from patent publication US12103924B2, “Mitogen-activated protein kinase kinase (MEK) degradation compounds and methods of use” (Icahn School of Medicine at Mount Sinai, priority 2020, dated 2024).
# Tested on: HT-29 cells
# Assay: MTT cell viability assay, HT-29
# Assay type: cell-based
# Conditions: Homo sapiens, 72 h, MTT assay, 3 d treatment, serial dilutions
# Experimental: MTT assay was conducted for HT-29 cells after 3 d treatment with indicated compounds with serial dilutions.
# MTT assay was conducted for HT-29 (A) and SK-MEL-28 (B) cells after 3 d treatment with DMSO or indicated compounds with serial dilutions. Clonogenic assay was performed in HT-29 (C) and SK-MEL-28 (D) cells for 14 d treatment with DMSO or indicated compounds with 10, 30 and 100 nM, in duplicate, respectively. Cells were then stained by crystal violet.
# Cells (2000 cells per well) were seeded into 96-well microplates. After 20 h, cells were treated with 0.1% DMSO or indicated serial dilutions of compounds in duplicate or triplicate for 3 days. Cell viability was tested using MTT (M6494, Thermo Fisher Scientific) or WST-8 reagent (CK04, Dojindo). Briefly, 12 mM MTT was prepared in PBS or WST-8 reagent was warmed up to room temperature. 20 μL MTT or CCK-8 was then added to each well and the plates were kept in incubator at 37° C. for 3 h in the dark. For the WST-8 assay, signal was obtained after the incubation. For the MTT assay, cell medium was replaced with 200 μL of DMSO after the incubation, and then cell plates were kept at 37° C. for another 30 min. Absorbance signals for MTT and WST-8 were read at 540 nm and 450 nm respectively, with 690 nm as reference performed with Infinite F PLEX plate reader (TECAN, Morrisville, NC, USA). GI50 values were analyzed using GraphPad Prism 8 from the data of at least three independent experiments.
# HT-29 or SK-MEL-28 cells (300 cells per well) were seeded in 12-well plates. After 20 h, cells were treated with DMSO or indicated concentrations of compounds in duplicate for two weeks. Medium containing indicated compounds was changed every 3 days. Cells were then fixed and stained with the solution containing 6% (v/v) glutaraldehyde (G5882, Sigma-Aldrich) and 0.5% (w/v) crystal violet for 1 h. To remove the background color, the plates with stained cells were immersed in running water until clear colonies were observed. The plates were dried at RT. The staining images were obtained with Epson Perfection V600 Photo.
row,GI50,Compound
1,4 ± 0.2 µM,"Cc1ncsc1-c1ccc(CNC(=O)[C@@H]2C[C@@H](O)CN2C(=O)[C@@H](NC(=O)COCCNCCCONC(=O)c2ccc(F)c(F)c2Nc2ccc(I)cc2F)C(C)(C)C)cc1 [CPD-002, (2S,4R)-1-((S)-14-(tert-Butyl)-1-(3,4-difluoro-2-((2-fluoro-4-iodophenyl)amino)phenyl)-1,12-dioxo-3,10-dioxa-2,7,13-triazapentadecan-15-oyl)-4-hydroxy-N-(4-(4-methylthiazol-5-yl)benzyl)pyrrolidine-2-carboxamide]"
2,4.8 ± 0.7 µM,"Cc1ncsc1-c1ccc(CNC(=O)[C@@H]2C[C@@H](O)CN2C(=O)[C@@H](NC(=O)CCOCCNCCCONC(=O)c2ccc(F)c(F)c2Nc2ccc(I)cc2F)C(C)(C)C)cc1 [CPD-003, (2S,4R)-1-((S)-15-(tert-Butyl)-1-(3,4-difluoro-2-((2-fluoro-4-iodophenyl)amino)phenyl)-1,13-dioxo-3,10-dioxa-2,7,14-triazahexadecan-16-oyl)-4-hydroxy-N-(4-(4-methylthiazol-5-yl)benzyl)pyrrolidine-2-carboxamide]"
3,1.6 ± 0.3 µM,"Cc1ncsc1-c1ccc(CNC(=O)[C@@H]2C[C@@H](O)CN2C(=O)[C@@H](NC(=O)CCOCCOCCNCCCONC(=O)c2ccc(F)c(F)c2Nc2ccc(I)cc2F)C(C)(C)C)cc1 [CPD-004, (2S,4R)-1-((S)-18-(tert-Butyl)-1-(3,4-difluoro-2-((2-fluoro-4-iodophenyl)amino)phenyl)-1,16-dioxo-3,10,13-trioxa-2,7,17-triazanonadecan-19-oyl)-4-hydroxy-N-(4-(4-methylthiazol-5-yl)benzyl)pyrrolidine-2-carboxamide]"
4,1.8 ± 0.4 µM,"Cc1ncsc1-c1ccc(CNC(=O)[C@@H]2C[C@@H](O)CN2C(=O)[C@@H](NC(=O)CNCCCONC(=O)c2ccc(F)c(F)c2Nc2ccc(I)cc2F)C(C)(C)C)cc1 [CPD-005, (2S,4R)-1-((S)-11-(tert-Butyl)-1-(3,4-difluoro-2-((2-fluoro-4-iodophenyl)amino)phenyl)-1,9-dioxo-3-oxa-2,7,10-triazadodecan-12-oyl)-4-hydroxy-N-(4-(4-methylthiazol-5-yl)benzyl)pyrrolidine-2-carboxamide]"
5,5 ± 1.1 µM,"Cc1ncsc1-c1ccc(CNC(=O)[C@@H]2C[C@@H](O)CN2C(=O)[C@@H](NC(=O)CCNCCCONC(=O)c2ccc(F)c(F)c2Nc2ccc(I)cc2F)C(C)(C)C)cc1 [CPD-006, (2S,4R)-1-((S)-12-(tert-Butyl)-1-(3,4-difluoro-2-((2-fluoro-4-iodophenyl)amino)phenyl)-1,10-dioxo-3-oxa-2,7,11-triazatridecan-13-oyl)-4-hydroxy-N-(4-(4-methylthiazol-5-yl)benzyl)pyrrolidine-2-carboxamide]"
6,3 ± 0.5 µM,"Cc1ncsc1-c1ccc(CNC(=O)[C@@H]2C[C@@H](O)CN2C(=O)[C@@H](NC(=O)CCCCNCCCONC(=O)c2ccc(F)c(F)c2Nc2ccc(I)cc2F)C(C)(C)C)cc1 [CPD-007, (2S,4R)-1-((S)-14-(tert-Butyl)-1-(3,4-difluoro-2-((2-fluoro-4-iodophenyl)amino)phenyl)-1,12-dioxo-3-oxa-2,7,13-triazapentadecan-15-oyl)-4-hydroxy-N-(4-(4-methylthiazol-5-yl)benzyl)pyrrolidine-2-carboxamide]"
7,11 ± 0.9 µM,"Cc1ncsc1-c1ccc(CNC(=O)[C@@H]2C[C@@H](O)CN2C(=O)[C@@H](NC(=O)CCCNCCCONC(=O)c2ccc(F)c(F)c2Nc2ccc(I)cc2F)C(C)(C)C)cc1 [CPD-008, (2S,4R)-1-((S)-13-(tert-Butyl)-1-(3,4-difluoro-2-((2-fluoro-4-iodophenyl)amino)phenyl)-1,11-dioxo-3-oxa-2,7,12-triazatetradecan-14-oyl)-4-hydroxy-N-(4-(4-methylthiazol-5-yl)benzyl)pyrrolidine-2-carboxamide]"
8,2.1 ± 0.1 µM,"Cc1ncsc1-c1ccc(CNC(=O)[C@@H]2C[C@@H](O)CN2C(=O)[C@@H](NC(=O)CCCCCNCCCONC(=O)c2ccc(F)c(F)c2Nc2ccc(I)cc2F)C(C)(C)C)cc1 [CPD-009, (2S,4R)-1-((S)-15-(tert-butyl)-1-(3,4-difluoro-2-((2-fluoro-4-iodophenyl)amino)phenyl)-1,13-dioxo-3-oxa-2,7,14-triazahexadecan-16-oyl)-4-hydroxy-N-(4-(4-methylthiazol-5-yl)benzyl)pyrrolidine-2-carboxamide]"
9,0.6 ± 0.1 µM,"Cc1ncsc1-c1ccc(CNC(=O)[C@@H]2C[C@@H](O)CN2C(=O)[C@@H](NC(=O)CCCCCCCCNCCCONC(=O)c2ccc(F)c(F)c2Nc2ccc(I)cc2F)C(C)(C)C)cc1 [CPD-010, (2S,4R)-1-((S)-18-(tert-butyl)-1-(3,4-difluoro-2-((2-fluoro-4-iodophenyl)amino)phenyl)-1,16-dioxo-3-oxa-2,7,17-triazanonadecan-19-oyl)-4-hydroxy-N-(4-(4-methylthiazol-5-yl)benzyl)pyrrolidine-2-carboxamide]"
10,0.5 ± 0.2 µM,"Cc1ncsc1-c1ccc(CNC(=O)[C@@H]2C[C@@H](O)CN2C(=O)[C@@H](NC(=O)CCCCCCCNCCCONC(=O)c2ccc(F)c(F)c2Nc2ccc(I)cc2F)C(C)(C)C)cc1 [CPD-011, (2S,4R)-1-((S)-17-(tert-butyl)-1-(3,4-difluoro-2-((2-fluoro-4-iodophenyl)amino)phenyl)-1,15-dioxo-3-oxa-2,7,16-triazaoctadecan-18-oyl)-4-hydroxy-N-(4-(4-methylthiazol-5-yl)benzyl)pyrrolidine-2-carboxamide]"
11,1.6 ± 0.3 µM,"Cc1ncsc1-c1ccc(CNC(=O)[C@@H]2C[C@@H](O)CN2C(=O)[C@@H](NC(=O)COCCOCCNCCCONC(=O)c2ccc(F)c(F)c2Nc2ccc(I)cc2F)C(C)(C)C)cc1 [CPD-012, (2S,4R)-1-((S)-17-(tert-butyl)-1-(3,4-difluoro-2-((2-fluoro-4-iodophenyl)amino)phenyl)-1,15-dioxo-3,10,13-trioxa-2,7,16-triazaoctadecan-18-oyl)-4-hydroxy-N-(4-(4-methylthiazol-5-yl)benzyl)pyrrolidine-2-carboxamide]"
12,0.5 ± 0.03 µM,"Cc1ncsc1-c1ccc(CNC(=O)[C@@H]2C[C@@H](O)CN2C(=O)[C@@H](NC(=O)CCCCCCCCCNCCCONC(=O)c2ccc(F)c(F)c2Nc2ccc(I)cc2F)C(C)(C)C)cc1 [CPD-013, (2S,4R)-1-((S)-19-(tert-butyl)-1-(3,4-difluoro-2-((2-fluoro-4-iodophenyl)amino)phenyl)-1,17-dioxo-3-oxa-2,7,18-triazaicosan-20-oyl)-4-hydroxy-N-(4-(4-methylthiazol-5-yl)benzyl)pyrrolidine-2-carboxamide]"
13,3.3 ± 0.6 µM,"Cc1ncsc1-c1ccc(CNC(=O)[C@@H]2C[C@@H](O)CN2C(=O)[C@@H](NC(=O)CCOCCOCCOCCNCCCONC(=O)c2ccc(F)c(F)c2Nc2ccc(I)cc2F)C(C)(C)C)cc1 [CPD-016, (2S,4R)-1-((S)-21-(tert-butyl)-1-(3,4-difluoro-2-((2-fluoro-4-iodophenyl)amino)phenyl)-1,19-dioxo-3,10,13,16-tetraoxa-2,7,20-triazadocosan-22-oyl)-4-hydroxy-N-(4-(4-methylthiazol-5-yl)benzyl)pyrrolidine-2-carboxamide]"
14,1.7 ± 0.1 µM,"Cc1ncsc1-c1ccc(CNC(=O)[C@@H]2C[C@@H](O)CN2C(=O)[C@@H](NC(=O)CCOCCOCCOCCOCCNCCCONC(=O)c2ccc(F)c(F)c2Nc2ccc(I)cc2F)C(C)(C)C)cc1 [CPD-017, (2S,4R)-1-((S)-24-(tert-butyl)-1-(3,4-difluoro-2-((2-fluoro-4-iodophenyl)amino)phenyl)-1,22-dioxo-3,10,13,16,19-pentaoxa-2,7,23-triazapentacosan-25-oyl)-4-hydroxy-N-(4-(4-methylthiazol-5-yl)benzyl)pyrrolidine-2-carboxamide]"
15,1.3 ± 0.5 µM,"O=C1CCC(N2C(=O)c3cccc(NCCOCCOCCNCCCONC(=O)c4ccc(F)c(F)c4Nc4ccc(I)cc4F)c3C2=O)C(=O)N1 (stereo not drawn) [CPD-020, N-(3-((2-(2-(2-((2-(2,6-dioxopiperidin-3-yl)-1,3-dioxoisoindolin-4-yl)amino)ethoxy)ethoxy)ethyl)amino)propoxy)-3,4-difluoro-2-((2-fluoro-4-iodophenyl)amino)benzamide]"
16,0.8 ± 0.2 µM,"O=C1CCC(N2C(=O)c3cccc(NCCOCCOCCOCCNCCCONC(=O)c4ccc(F)c(F)c4Nc4ccc(I)cc4F)c3C2=O)C(=O)N1 (stereo not drawn) [CPD-021, N-((1-((2-(2,6-dioxopiperidin-3-yl)-1,3-dioxoisoindolin-4-yl)amino)-3,6,9-trioxa-12-azapentadecan-15-yl)oxy)-3,4-difluoro-2-((2-fluoro-4-iodophenyl)amino)benzamide]"
17,0.6 ± 0.09 µM,"O=C1CCC(N2C(=O)c3cccc(NCCOCCOCCOCCOCCNCCCONC(=O)c4ccc(F)c(F)c4Nc4ccc(I)cc4F)c3C2=O)C(=O)N1 (stereo not drawn) [CPD-022, N-((1-((2-(2,6-dioxopiperidin-3-yl)-1,3-dioxoisoindolin-4-yl)amino)-3,6,9,12-tetraoxa-15-azaoctadecan-18-yl)oxy)-3,4-difluoro-2-((2-fluoro-4-iodophenyl)amino)benzamide]"
18,1.1 ± 0.07 µM,"O=C1CCC(N2C(=O)c3cccc(NCCCNCCCONC(=O)c4ccc(F)c(F)c4Nc4ccc(I)cc4F)c3C2=O)C(=O)N1 (stereo not drawn) [CPD-025, N-(3-((3-((2-(2,6-dioxopiperidin-3-yl)-1,3-dioxoisoindolin-4-yl)amino)propyl)amino)propoxy)-3,4-difluoro-2-((2-fluoro-4-iodophenyl)amino)benzamide]"
19,1.9 ± 0.4 µM,"O=C1CCC(N2C(=O)c3cccc(NCCCCNCCCONC(=O)c4ccc(F)c(F)c4Nc4ccc(I)cc4F)c3C2=O)C(=O)N1 (stereo not drawn) [CPD-026, N-(3-((4-((2-(2,6-dioxopiperidin-3-yl)-1,3-dioxoisoindolin-4-yl)amino)butyl)amino)propoxy)-3,4-difluoro-2-((2-fluoro-4-iodophenyl)amino)benzamide]"
20,1.8 ± 0.5 µM,"O=C1CCC(N2C(=O)c3cccc(NCCCCCNCCCONC(=O)c4ccc(F)c(F)c4Nc4ccc(I)cc4F)c3C2=O)C(=O)N1 (stereo not drawn) [CPD-027, N-(3-((5-((2-(2,6-dioxopiperidin-3-yl)-1,3-dioxoisoindolin-4-yl)amino)pentyl)amino)propoxy)-3,4-difluoro-2-((2-fluoro-4-iodophenyl)amino)benzamide]"
21,3.8 ± 1.7 µM,"O=C1CCC(N2C(=O)c3cccc(NCCCCCCNCCCONC(=O)c4ccc(F)c(F)c4Nc4ccc(I)cc4F)c3C2=O)C(=O)N1 (stereo not drawn) [CPD-028, N-(3-((6-((2-(2,6-dioxopiperidin-3-yl)-1,3-dioxoisoindolin-4-yl)amino)hexyl)amino)propoxy)-3,4-difluoro-2-((2-fluoro-4-iodophenyl)amino)benzamide]"
